Where two headings read alike, the source gives them in different places. *1 amine or outer side, *2 acyl side, *3 side chain or, on linkers, in order; H or OH if unused. Where a SMILES comes first, the peptide text is derived from it. [ ]: non-standard residue; d: D form. The star is where a group is joined. Acca(2-Et,1R,2R) = CC[C@@H]1C[C@]1(N)C(=O)O; CH2(1-naphthyl) = c1ccc2c(C*)cccc2c1; Glutaryl = O=C(CCCC(=O)[*:2])[*:1]; Hyp = O=C(O)[C@@H]1C[C@@H](O)CN1; NMeI = CC[C@H](C)[C@H](NC)C(=O)O; Chg = N[C@H](C(=O)O)C1CCCCC1; Suc = O=C(CCC(=O)[*:2])[*:1]; X5 = CC(C)(C)c1ccc(C*)cc1; Nva = CCC[C@H](N)C(=O)O; Ac3c = NC1(C(=O)O)CC1; OBn = c1ccc(CO*)cc1; Bn = c1ccc(C*)cc1
Molecular target: T1, HCV NS3 protease type 1b/NS4A cofactor peptide (Hepatitis C virus genotype 1b, UniProt P26663)
T1 construct: recombinant HCV NS3 protease (amino acid 1027 to 1206) was cloned in the pET11d bacterial expression vector; made in house; host or cells: E. coli BL21(DE3)pLysS
Experiment: Recombinant HCV NS3 protease/NS4A cofactor peptide radiometric assay
Format: biochemical, HCV genotype 1b
Details: read-out: IC50
Protocol: Recombinant HCV NS3 Protease/NS4A Cofactor Peptide Radiometric Assay.
The enzyme was stored at −80° C., thawed on ice and diluted just prior to use in the assay buffer containing the NS4A cofactor peptide.
The substrate used for the NS3 protease/NS4A cofactor peptide radiometric assay, DDIVPC-SMSYTW [SEQ. ID NO. 2], is cleaved between the cysteine and the serine residues by the enzyme. The sequence DDIVPC-SMSYTW [SEQ. ID NO. 2] corresponds to the NS5A/NS5B natural cleavage site in which the cysteine residue in P2 has been substituted for a proline. The peptide substrate DDIVPC-SMSYTW [SEQ. ID NO. […] ID NO. […] [SEQ. ID NO. 5] (molar ratio enzyme: cofactor 1:100) in the absence or presence of inhibitors. The separation of substrate from products is performed by adding avidin-coated agarose beads to the assay mixture followed by filtration. […] ID NO. 4] product found in the filtrate allows for the calculation of the percentage of substrate conversion and of the percentage of inhibition.
Tris and Tris-HCl (UltraPure) were obtained from Gibco-BRL. Glycerol (UltraPure), MES and BSA were purchased from Sigma. TCEP was obtained from Pierce, DMSO from Aldrich and NaOH from Anachemia.
Assay buffer: 50 mM Tris HCl, pH 7.5, 30% (w/v) glycerol, 1 mg/mL BSA, 1 mM TCEP (TCEP added just prior to use from a 1 M stock solution in water).
Substrate: […] [SEQ. ID NO.
ID NO. 3] (˜1 nM final concentration).
The assay was performed in a 96-well polypropylene plate from Costar. Each well contained:
20 μL substrate/tracer in assay buffer;
10 μL±inhibitor in 20% DMSO/assay buffer;
10 μL NS3 protease 1b/NS4 cofactor peptide (molar ratio 1:100).
Blank (no inhibitor and no enzyme) and control (no inhibitor) were also prepared on the same assay plate.
The enzymatic reaction was initiated by the addition of the enzyme/NS4A peptide solution and the assay mixture was incubated for 40 min at 23° C. under gentle agitation. Ten (10) μL of 0.5N NaOH were added and 10 μL 1 M MES, pH 5.8 were added to quench the enzymatic reaction.
Twenty (20) μL of avidin-coated agarose beads (purchased from Pierce) were added in a Millipore MADP N65 filtration plate. The quenched assay mixture was transferred to the filtration plate, and incubated for 60 min at 23° C. under gentle agitation.
The plates were filtered using a Millipore MultiScreen Vacuum Manifold Filtration apparatus, and 40 μL of the filtrate was transferred in an opaque 96-well plate containing 60 μL of scintillation fluid per well.
The % inhibition was calculated with the following equation:
100-[(countsinh-countsblank)/(countsctl-countsblank)×100]

[1] = Table 2, unmarked values: NS3 protease/NS4A cofactor peptide radiometric assay
[2] = Table 1, unmarked values: NS3 protease/NS4A cofactor peptide radiometric assay

T1 sequence (P26663 1027-1206, other chains not shown): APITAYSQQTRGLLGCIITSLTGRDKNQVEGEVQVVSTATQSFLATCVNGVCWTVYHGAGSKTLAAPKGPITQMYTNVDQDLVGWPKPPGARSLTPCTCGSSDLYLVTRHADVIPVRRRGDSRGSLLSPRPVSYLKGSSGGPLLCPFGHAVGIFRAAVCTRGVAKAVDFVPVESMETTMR

Compound | IC50 [1] [µM] | further results
CC[C@H]1C[C@@]1(NC(=O)[C@@H]1C[C@@H](OCc2cccc3ccccc23)CN1C(=O)[C@@H](NC(=O)[C@@H](NC(C)=O)C1CCCCC1)C(C)C)C(=O)O [compound 514] | – | IC50 (text b180, values of Table 5, 1R,2R versus 1S,2S isomer at P1): 27.5 µM
CCC[C@H](NC(=O)[C@@H]1C[C@@H](OCc2cccc3ccccc23)CN1C(=O)[C@@H](NC(=O)[C@@H](NC(=O)[C@H](CC(=O)O)NC(=O)[C@H](CC(=O)O)NC(C)=O)[C@@H](C)CC)C(C)C)C(=O)O [compound 207] (Ac-DDIV[Hyp](CH2(1-naphthyl))[Nva]-OH) | 0.39 | –
CC(=O)N[C@H](C(=O)N[C@H](C(=O)N1C[C@H](OCc2ccccc2)C[C@H]1C(=O)NC1(C(=O)O)CC1)C1CCCCC1)C1CCCCC1 [compound 234] (Ac-[Chg][Chg][Hyp](Bn)[Ac3c]-OH) | 41 | –
CC(=O)N[C@H](C(=O)N[C@H](C(=O)N1C[C@H](OCc2cccc3ccccc23)C[C@H]1C(=O)NC1(C(=O)O)CC1)C1CCCCC1)C1CCCCC1 [compound 231] (Ac-[Chg][Chg][Hyp](CH2(1-naphthyl))[Ac3c]-OH) | 2.6 | –
CCC[C@H](NC(=O)[C@@H]1C[C@@H](OCc2ccc(C(C)(C)C)cc2)CN1C(=O)[C@@H](NC(=O)[C@@H](NC(=O)[C@H](CC(=O)O)NC(=O)[C@H](CC(=O)O)NC(C)=O)[C@@H](C)CC)C(C)C)C(=O)O [compound 209] (Ac-DDIV[Hyp](X5)[Nva]-OH) | 2.6 | –
CCC[C@H](NC(=O)[C@@H]1CCCN1C(=O)[C@@H](NC(=O)[C@@H](NC(=O)[C@H](CC(=O)O)NC(=O)[C@H](CC(=O)O)NC(C)=O)[C@@H](C)CC)C(C)C)C(=O)O (single isomer, unassigned) [compound 273] | 17.5 | –
CC(=O)N[C@H](C(=O)N[C@H](C(=O)N1C[C@H](Oc2cccc(Br)c2)C[C@H]1C(=O)NC1(C(=O)O)CC1)C(C)C)C1CCCCC1 [compound 240] | 42 | –
CCC[C@H](NC(=O)[C@@H]1C[C@@H](OCc2cccc3ccccc23)CN1C(=O)[C@@H](NC(=O)[C@@H](NC(C)=O)C1CCCCC1)C(C)C)C(=O)O [compound 252] (Ac-[Chg]V[Hyp](CH2(1-naphthyl))[Nva]-OH) | 20 | –
CC(=O)N[C@@H](CC(=O)O)C(=O)N[C@@H](CCC(=O)O)C(=O)N[C@H](C(=O)N[C@H](C(=O)N[C@@H](CCC(=O)OCc1ccccc1)C(=O)NC1(C(=O)O)CC1)C(C)C)C1CCCCC1 [compound 133] (Ac-DE[Chg]VE(OBn)[Ac3c]-OH) | – | IC50 [2]: 39 µM
CC[C@H](C)[C@H](NC(=O)[C@@H](CCC(=O)O)NC(=O)[C@H](CC(=O)O)NC(C)=O)C(=O)N[C@H](C(=O)N1C[C@H](OCc2ccccc2)C[C@H]1C(=O)N[C@@H](CS)C(=O)O)C(C)C [compound 260] (Ac-D[dE]IV[Hyp](Bn)C-OH) | 0.18 | –
CCC[C@H](NC(=O)[C@@H]1C[C@@H](OCc2cccc3ccccc23)CN1C(=O)[C@@H](NC(=O)[C@H]([C@@H](C)CC)N(C)C(=O)CCC(=O)O)C(C)C)C(=O)O [compound 220] (Suc-[NMeI]V[Hyp](CH2(1-naphthyl))[Nva]-OH) | 31 | –
CCC[C@H](NC(=O)[C@@H]1C[C@@H](OCc2cccc3ccccc23)CN1C(=O)[C@@H](NC(=O)[C@@H](NC(=O)CCCC(=O)O)[C@@H](C)CC)C(C)C)C(=O)O [compound 222] (Glutaryl-IV[Hyp](CH2(1-naphthyl))[Nva]-OH) | 20 | –
CC[C@@H]1C[C@]1(NC(=O)[C@@H]1C[C@@H](OCc2ccccc2)CN1C(=O)[C@@H](NC(=O)[C@@H](NC(=O)[C@@H](CCC(=O)O)NC(=O)[C@H](CC(=O)O)NC(C)=O)[C@@H](C)CC)C(C)C)C(=O)O [compound 517] (Ac-D[dE]IV[Hyp](Bn)[Acca(2-Et,1R,2R)]-OH) | – | IC50 (Table 5, first line of the cell, NS3 protease/NS4A cofactor peptide radiometric assay (Example 38)): 0.075 µM
CC(=O)N[C@@H](CC(=O)O)C(=O)N[C@@H](CCC(=O)O)C(=O)N[C@H](C(=O)N[C@@H](CCC(=O)O)C(=O)N[C@@H](CCC(=O)O)C(=O)N[C@@H](CS)C(=O)O)C1CCCCC1 [compound 131] (Ac-DE[Chg]EEC-OH) | – | IC50 [2]: 24 µM
CCC[C@H](NC(=O)[C@@H]1C[C@@H](OCc2ccccc2)CN1C(=O)[C@@H](NC(=O)[C@@H](NC(=O)[C@@H](CCC(=O)O)NC(=O)[C@H](CC(=O)O)NC(C)=O)C1CCCCC1)C(C)C)C(=O)O [compound 211] (Ac-D[dE][Chg]V[Hyp](Bn)[Nva]-OH) | 0.12 | –
CC[C@H](C)[C@H](NC(=O)[C@H](NC(=O)[C@H](CC(=O)O)NC(C)=O)C(C)C)C(=O)N[C@H](C(=O)N1CCC[C@H]1C(=O)N[C@@H](CS)C(=O)O)C(C)C [compound 274] (Ac-D[dV]IVPC-OH) | 7.6 | –
CC(=O)N[C@H](C(=O)N[C@H](C(=O)N1C[C@H](Oc2ccccc2Br)C[C@H]1C(=O)NC1(C(=O)O)CC1)C(C)C)C1CCCCC1 [compound 239] | 27 | –

From patent US6767991B1, “Hepatitis C inhibitor peptides” (priority 1997, dated 2004)
